Laboratory results published in patent US9815851B2, “Pyrrolo carboxamides as modulators of orphan nuclear receptor RAR-related orphan receptor-gamma (RORγ, NR1F3) activity and for the treatment of chronic inflammatory and autoimmune diseases” (PHENEX PHARMACEUTICALS AG, priority 2011, dated 2017).
Read-outs that look alike come from different tables or passages of the source.

Legend:
RORγ = biological target: T1, RORγ (UniProt P51449); assay: RORγ Gal4 Reporter Gene Assay in 293T cells (firefly and renilla luciferase); type: cell-based, human
T1 sequence (P51449 1-518): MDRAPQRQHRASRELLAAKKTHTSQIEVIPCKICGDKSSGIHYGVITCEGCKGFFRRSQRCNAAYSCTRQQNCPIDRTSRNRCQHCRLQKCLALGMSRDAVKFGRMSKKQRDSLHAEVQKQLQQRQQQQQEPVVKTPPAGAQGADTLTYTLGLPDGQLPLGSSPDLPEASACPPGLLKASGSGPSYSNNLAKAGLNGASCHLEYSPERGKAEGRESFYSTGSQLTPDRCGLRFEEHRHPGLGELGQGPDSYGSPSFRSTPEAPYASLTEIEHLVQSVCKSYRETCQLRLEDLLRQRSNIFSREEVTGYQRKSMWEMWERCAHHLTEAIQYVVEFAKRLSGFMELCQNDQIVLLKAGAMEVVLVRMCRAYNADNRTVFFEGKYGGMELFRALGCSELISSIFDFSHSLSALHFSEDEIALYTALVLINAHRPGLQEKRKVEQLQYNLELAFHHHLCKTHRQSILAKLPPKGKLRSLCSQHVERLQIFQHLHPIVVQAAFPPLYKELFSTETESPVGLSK

[1] = biological target: T2, RORγ ligand binding domain (LBD) (Homo sapiens, UniProt P51449); assay: TR-FRET Activity Assay (ligand sensing, RORγ-LBD / coactivator peptide interaction, LANCE); type: biochemical
T2 construct: made in house; host or cells: E. coli BL-21 (BL3), vector pDEST15
T2 sequence (P51449 269-508 limits assumed): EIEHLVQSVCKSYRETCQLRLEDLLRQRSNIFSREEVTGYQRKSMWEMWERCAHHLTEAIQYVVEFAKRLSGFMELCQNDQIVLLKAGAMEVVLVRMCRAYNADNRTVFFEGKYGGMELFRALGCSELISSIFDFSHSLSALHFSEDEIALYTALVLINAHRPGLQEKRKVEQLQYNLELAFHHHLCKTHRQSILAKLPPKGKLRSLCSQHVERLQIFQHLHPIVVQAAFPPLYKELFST

[2] = second value of the cell, Gal4 reporter gene assay in 293T cells, firefly luciferase
[3] = third value of the cell, Gal4 reporter gene assay in 293T cells, renilla normalised luciferase
[4] = first value of the cell FRET/FF/REN, TR-FRET activity assay, read-out: pIC50 (FRET) (converted)

Compound | pIC50 (FF) (RORγ) | pIC50 (REN) (RORγ) | IC50 [1] [nM] | pIC50 (FF) (RORγ; [2]) | pIC50 (REN) (RORγ; [3]) | IC50 [1, 4] [nM]
Cc1c(C(=O)NC2CCOCC2)cc(-c2ccc(S(=O)(=O)N(CC(F)(F)F)C(C)(C)C)c(C(C)(C)C)c2)n1CC1CCCCC1 [17/1] | 5.9/8.0/7.9 | 5.9/8.0/7.9 | 1260 |  |  | 
Cc1c(C(=O)NCC2CCS(=O)(=O)CC2)cc(-c2ccc(S(=O)(=O)NC(C)(C)C)c3ccccc23)n1CC1CCCCC1 [17/265] |  |  |  | 7.9 | 8.0 | 316
COC(C)(C)c1cc(C(=O)NC(C)(C)C)cc(-c2cc(C(=O)NC3CCOCC3)c(C)n2CC2CCCCC2)c1 [17/324] | 5.5/6.8/6.8 | 5.5/6.8/6.8 | 3160 |  |  | 
Cc1c(C(=O)NCCC(=O)O)cc(-c2cc(C(C)(C)C)cc(C(C)(C)C)c2)n1CC1CCCCC1 [1/68] |  |  |  | 6.7 | 6.8 | 1580
Cc1c(C(=O)NC2CCOCC2)cc(-c2cc(Cl)c(S(=O)(=O)NC(C)(C)C)c(C(F)(F)F)c2)n1CC1CCCCC1 [17/113] |  |  |  | 6.8 | 6.8 | 501
Cc1c(C(=O)NCCCN2CCOCC2)cc(-c2cc(C(C)(C)C)cc(C(C)(C)C)c2)n1CC1CCCCC1 [1/71] |  |  |  | 5.8 | 5.9 | 1260
Cc1c(C(=O)NCc2nnn[nH]2)cc(-c2cc(C(C)(C)C)cc(C3(C)CC3)c2)n1CC1CCCCC1 [17/71] |  |  |  | 6.9 | 6.8 | 1580
Cc1c(C(=O)N[C@H]2C[C@H](C(=O)O)C2)cc(-c2ccc(S(=O)(=O)NC(C)(C)C)c3ccccc23)n1CC1CCCCC1 [17/240] |  |  |  | 7.5 | 7.6 | 794
Cc1c(C(=O)NC2CCOCC2)cc(-c2ccc(S(=O)(=O)NC(C)(C)C)c3ncccc23)n1CC1CCCCC1 [17/283] |  |  |  | 6.7 | 6.8 | 1000
Cc1c(C(=O)N[C@H]2C[C@H](C(=O)O)C2)cc(-c2cc(C(C)(C)C)nc(C3(C)CC3)n2)n1CC1CCCCC1 [17/312] |  |  |  | 7.2 | 7.3 | 316
Cc1c(C(=O)NC2COC2)cc(-c2cc(C(C)(C)C)cc(C(C)(C)C)c2)n1CC1CCCC(C)C1 (stereo not drawn) [1/119] | 6.7/7.4/7.3 | 6.7/7.4/7.3 | 200 |  |  | 
Cc1c(C(=O)NC2COC2)cc(-c2ccc(C(=O)NC(C)(C)C)c(C(C)(C)C)c2)n1CC1CCCCC1 [1/30] |  |  |  | 6.4 | 6.2 | 3980
Cc1c(C(=O)N[C@H]2C[C@H](C(=O)O)C2)cc(-c2ccc(S(=O)(=O)NC(C)(C)C)c3c2OCCO3)n1CC1CCCCC1 [17/279] |  |  |  | < 4.7 | < 4.7 | 3160
CCC(C)(C)NS(=O)(=O)c1ccc(-c2cc(C(=O)NC3CCOCC3)c(C)n2CC2CCCCC2)cc1C(F)(F)F [17/83] |  |  |  | 8.2 | 8.3 | 126
Cc1c(C(=O)NC2COC2)cc(-c2cc(C(C)(C)C)cc(C(C)(C)C)c2)n1S(=O)(=O)N1CCCCC1 [Example 7, 5-(3,5-Di-tert-butylphenyl)-2-methyl-N-(oxetan-3-yl)-1-(piperidin-1-ylsulfonyl)-1H-pyrrole-3-carboxamide] |  |  |  | 6.8 | 6.9 | 316
Cc1c(C(=O)NC2COC2)cc(-c2cc(C(C)(C)C)cc(C(C)(C)C)c2)n1CC1CCC(C)CC1 (stereo not drawn) [1/114] |  |  |  | 6.7 | 6.8 | 251
Cc1c(C(=O)NCCN2CCN(S(C)(=O)=O)CC2)cc(-c2cc(C(C)(C)C)cc(C3(C)CC3)c2)n1CC1CCCCC1 [17/347] |  |  |  | 6.5 | 6.5 | 398

Compound | pIC50 (FF) (RORγ) | pIC50 (REN) (RORγ) | IC50 [1] [nM] | pIC50 (FF) (RORγ; [2]) | pIC50 (REN) (RORγ; [3]) | IC50 [1, 4] [nM]
Cc1c(C(=O)NCC2(C(N)=O)CCOCC2)cc(-c2ccc(S(=O)(=O)NC(C)(C)C)c3ccccc23)n1CC1CCCCC1 [17/267] |  |  |  | 7.9 | 8.0 | 794
Cc1c(C(=O)NCC(C)(C)O)cc(-c2ccc(S(=O)(=O)NC(C)(C)C)c3ccccc23)n1CC1CCCCC1 [17/264] |  |  |  | 7.9 | 7.7 | 631
Cc1c(C(=O)N2CC3(CCOCC3)C2)cc(-c2ccc(S(=O)(=O)NC(C)(C)C)c(C(F)(F)F)c2)n1CC1CCCCC1 [17/211] |  |  |  | 8.0 | 8.0 | 501
Cc1c(C(=O)N2CCC(C)(C(=O)O)CC2)cc(-c2ccc(S(=O)(=O)NC(C)(C)C)c(C(F)(F)F)c2)n1CC1CCCCC1 [17/224] |  |  |  | 7.1 | 7.2 | 794
Cc1c(C(=O)N2CC(C(=O)O)C2)cc(-c2cc(C(C)(C)C)c3c(c2)C2(CCO3)CC2)n1CC1CCCCC1 [17/52] |  |  |  | 6.7 | 6.7 | 1580
Cc1c(C(=O)NCC2CCS(=O)(=O)CC2)cc(-c2cc(C(C)(C)C)c3c(c2)C2(CCO3)CC2)n1CC1CCCCC1 [17/10] | 6.4/7.6/7.6 | 6.4/7.6/7.6 | 398 |  |  | 
CCNC(=O)c1cc(-c2ccc(S(=O)(=O)NC(C)(C)C)c(C(C)(C)C)c2)n(CC2CCCCC2)c1C [17/98] |  |  |  | 6.8 | 6.9 | 316
Cc1c(C(=O)N[C@H]2C[C@@H](C(=O)O)C2)cc(-c2cc(C(C)(C)C)c3c(c2)C2(CCO3)CC2)n1CC1CCCCC1 [17/56] |  |  |  | 6.4 | 6.4 | 12600
Cc1c(C(=O)NC2CCS(=O)(=O)C2)cc(-c2cc(C(C)(C)C)c3c(c2)C2(CCO3)CC2)n1CC1CCCCC1 (stereo not drawn) [17/15] |  |  |  | 7.2 | 7.1 | 794
Cc1c(C(=O)NCCOC(C)C)cc(-c2cc(C(C)(C)C)cc(C(C)(C)C)c2)n1CC1CCCCC1 [1/62] | 6.5/6.4/6.3 | 6.5/6.4/6.3 | 316 |  |  | 
Cc1cc(C(C)(C)C)cc(-c2cc(C(=O)NCC(C)(C)O)c(C)n2CC2CCCCC2)c1OC(F)F [17/192] |  |  |  | 6.5 | 6.4 | 1580
CC(C)(C)NS(=O)(=O)c1ccc(-c2cc(C(=O)NC3CCOCC3)c(Cl)n2CC2CCCCC2)c2ccccc12 [22/1] | 6.8/8.4/8.4 | 6.8/8.4/8.4 | 158 |  |  | 
Cc1c(-c2cc(C(=O)NCC(C)(C)O)c(C)n2CC2CCCCC2)nc(C2(C)CC2)nc1C(C)(C)C [17/82] |  |  |  | 6.7 | 6.7 | 794
Cc1c(C(=O)NCC2CC(C(=O)O)C2)cc(-c2cc(C(C)(C)O)cc(C3(C)CC3)c2)n1CC1CCCCC1 (stereo not drawn) [17/246] |  |  |  | 6.1 | 6.2 | 3980
Cc1c(C(=O)NCCCCCC(=O)O)cc(-c2cc(C(C)(C)C)cc(C(C)(C)C)c2)n1CC1CCCCC1 [1/72] |  |  |  | 7.1 | 7.1 | 1000
Cc1c(C(=O)NC2COC2)cc(-c2cc(C(C)(C)C)cc(C(C)(C)CF)c2)n1CC1CCCCC1 [17/42] | 5.7/7.5/7.6 | 5.7/7.5/7.6 | 2000 |  |  | 
Cc1c(C(=O)NCC(C)(C)CC(=O)O)cc(-c2ccc(S(=O)(=O)NC(C)(C)C)c(C(F)(F)F)c2)n1CC1CCCCC1 [17/134] |  |  |  | 7.4 | 7.7 | 398
